# Laboratory results from ChEMBL document CHEMBL4610061, “Identification of novel GPR81 agonist lead series for target biology evaluation” (Bioorg Med Chem Lett, 2020).
# The source made the active and inactive calls. No cut-off for these calls is given here.
# Key:
# [1] = biological target: Hydroxycarboxylic acid receptor 2 (Homo sapiens, UniProt Q8TDS4); assay: Agonist activity at human GPR109A receptor
# [2] = Solubility of compound; type: physicochemical
# [3] = biological target: T1, Hydroxycarboxylic acid receptor 1 (Homo sapiens, UniProt Q9BXC0); assay: Agonist activity at human GPR81 overexpressed in CHO cells assessed as inhibition of forskolin-stimulated cAMP production; type: functional, cell-based
# [4] = Distribution coefficient, logD of compound at pH 7.4; type: physicochemical; details: octanol/water
# [5] = biological target: Growth hormone secretagogue receptor type 1 (Homo sapiens, UniProt Q92847); assay: Displacement of [125I]-ghrelin from human GHS-R1a stably expressed in HEK cell membrane measured after 60 mins by gamma counter method; type: cell membranes
# Homo sapiens = organism: Homo sapiens; assay: Selectivity index, ratio of IC50 for displacement of [125I]-ghrelin from human GHS-R1a stably expressed in HEK cell membrane measured after 60 mins by gamma counter method to EC50 for agonist activity at human GPR81 overexpressed in CHO cells assessed as inhibition of forskolin-stimulated cAMP production; type: cell membranes
# [6] = biological target: T1, Hydroxycarboxylic acid receptor 1; assay: Agonist activity at human GPR81 overexpressed in CHO cells assessed as inhibition of forskolin-stimulated cAMP production at 10 uM relative to control; type: functional, cell-based
# [7] = biological target: T2, Protein Gpr81 (Rattus norvegicus) (UniProt G3V906); assay: Agonist activity at rat GPR81 overexpressed in HEK293 cells by [35S]GTPgammaS binding assay; type: cell-based
# T2 sequence (whole entry): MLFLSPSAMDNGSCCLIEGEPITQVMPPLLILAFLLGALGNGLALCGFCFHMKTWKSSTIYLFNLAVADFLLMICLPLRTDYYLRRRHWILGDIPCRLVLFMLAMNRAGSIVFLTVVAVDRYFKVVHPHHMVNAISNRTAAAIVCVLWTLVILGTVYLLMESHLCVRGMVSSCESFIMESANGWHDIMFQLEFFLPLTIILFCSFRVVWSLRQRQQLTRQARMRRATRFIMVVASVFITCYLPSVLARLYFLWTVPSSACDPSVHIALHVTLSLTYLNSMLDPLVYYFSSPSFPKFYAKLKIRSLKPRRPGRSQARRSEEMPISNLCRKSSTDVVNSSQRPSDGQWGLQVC
# Chain of Growth hormone secretagogue receptor type 1 (Q92847 whole entry): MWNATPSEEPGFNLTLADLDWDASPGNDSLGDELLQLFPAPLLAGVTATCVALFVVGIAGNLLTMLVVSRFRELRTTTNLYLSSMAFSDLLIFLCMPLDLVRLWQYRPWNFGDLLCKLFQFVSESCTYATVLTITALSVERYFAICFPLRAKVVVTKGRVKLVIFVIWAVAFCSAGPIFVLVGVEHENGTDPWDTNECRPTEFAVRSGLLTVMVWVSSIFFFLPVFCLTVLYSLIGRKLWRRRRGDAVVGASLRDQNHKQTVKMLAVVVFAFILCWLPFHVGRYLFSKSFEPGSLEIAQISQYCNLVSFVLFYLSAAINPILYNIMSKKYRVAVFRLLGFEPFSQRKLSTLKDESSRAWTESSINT
# T1 sequence (Q9BXC0 whole entry): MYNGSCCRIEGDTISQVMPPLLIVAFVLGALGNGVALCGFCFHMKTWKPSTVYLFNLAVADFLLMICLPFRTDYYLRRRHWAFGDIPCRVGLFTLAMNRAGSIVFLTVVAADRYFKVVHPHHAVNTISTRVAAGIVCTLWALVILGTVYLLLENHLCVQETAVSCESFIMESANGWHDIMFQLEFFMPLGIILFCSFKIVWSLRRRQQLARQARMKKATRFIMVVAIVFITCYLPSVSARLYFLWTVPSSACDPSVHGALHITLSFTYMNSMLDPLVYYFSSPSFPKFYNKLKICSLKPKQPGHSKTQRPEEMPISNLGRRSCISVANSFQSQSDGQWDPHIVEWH
# Chain of Hydroxycarboxylic acid receptor 2 (Q8TDS4 whole entry): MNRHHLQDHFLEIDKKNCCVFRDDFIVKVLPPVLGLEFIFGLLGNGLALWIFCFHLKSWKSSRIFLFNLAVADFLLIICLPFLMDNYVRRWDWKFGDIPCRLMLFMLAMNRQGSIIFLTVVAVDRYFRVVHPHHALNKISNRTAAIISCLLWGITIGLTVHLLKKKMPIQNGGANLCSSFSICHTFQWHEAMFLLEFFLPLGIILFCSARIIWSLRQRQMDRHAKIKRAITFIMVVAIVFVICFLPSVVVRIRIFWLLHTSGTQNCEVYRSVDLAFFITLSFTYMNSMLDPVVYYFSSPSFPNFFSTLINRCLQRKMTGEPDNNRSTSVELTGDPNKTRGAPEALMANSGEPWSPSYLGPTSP
SMILES,EC50 [1] [µM],solubility [2] [µM],EC50 [3] [µM],logD [4],IC50 [5] [µM],Efficacy [6] [%],Activity [7],Ratio IC50/EC50 (Homo sapiens)
CCOc1cc(Cl)c(-c2ncc(-c3nc4ccc(S(=O)(=O)C5CCN(C)CC5)cc4s3)c(=O)[nH]2)cc1N1CCOCC1,1.6,61,0.24,1.6,> 18,,,
CCOc1cc(Cl)c(C(=O)Nc2nc3ccc(S(=O)(=O)CCCN4CCN(C)CC4)cc3s2)cc1N1C[C@H](C)O[C@@H](C)C1,1.4 to 3.2,155 to 231,0.27 to 0.35,3,10 to 14,,,> 80
CCOc1cc(Cl)c(C(=O)Nc2nc3ccc(S(=O)(=O)CCCN4CCN(C)CC4)cc3s2)cc1N1CCO[C@H](C)C1,1.4,470,0.16,2.4,21,,,> 80
CCOc1cc(Cl)c(CNC(=O)Nc2nc3ccc(CN4CCN(C)CC4)cc3s2)cc1N1CCOCC1,,188,> 33,3.2,> 4.97,,,
CCOc1cc(Cl)c(C(=O)NC(=O)Nc2nc3ccc(CN4CCN(C)CC4)cc3s2)cc1-n1cccn1,,,0.019,3.8,,,,
CCOc1cc(Cl)c(C(=O)NC(=O)Nc2nc3ccc(S(=O)(=O)C4CCN(C)CC4)cc3s2)cc1-n1cccn1,0.123,0.2,0.023,3,0.008,,Active,
CCOc1cc(Cl)c(C(=O)Nc2nc3ccccc3s2)cc1N1CCOCC1,12,0.09,1.9,4.3,> 50,,,> 80
CN1CCC(S(=O)(=O)c2ccc3nc(NC(=O)NC(=O)c4cc(-n5cccn5)c(F)cc4Cl)sc3c2)CC1,,,3.6,2.4,,70,,
CCOc1cc(Cl)c(C(=O)NC(=O)Nc2ncc(C)s2)cc1N1CCOCC1,,,0.769,3.2,,,,
CCOc1cc(Cl)c(-c2ccc(-c3nc4c(s3)CN(C(=O)CO)CC4)c(=O)[nH]2)cc1N1CCOCC1,0.91,7,0.022,2.4,1.9,,,
CCOc1ccc(C(=O)NC(=O)Nc2nc3ccc(CN4CCN(C)CC4)cc3s2)c(Cl)c1,,,0.56,3.4,,,,
CCOc1cc(Cl)c(C(=O)NC(=O)Nc2ncc(-c3ccccc3)s2)cc1N1CCOCC1,,,0.103,4.2,,,,
CCOc1cc(Cl)c(C(=O)NC(=O)Nc2nc3ccc(CN4CCN(C)CC4)cc3s2)cc1-c1ccn[nH]1,,,0.36,3.9,,,,
CCOc1cc(C)c(C(=O)NC(=O)Nc2nc3ccc(CN4CCN(C)CC4)cc3s2)cc1N1CCOCC1,,,> 3.7,2.9,,,,
Cc1cc(Cl)c(C(=O)NC(=O)Nc2nc3ccc(S(=O)(=O)C4CCN(C)CC4)cc3s2)cc1-n1cccn1,,,6.1,2.5,,70,,
CCOc1cc(Cl)c(C(=O)NC(=O)Nc2nc3ccc(CN4CCN(C)CC4)cc3s2)cc1N1CCO[C@H](C)C1,,,0.032,3.3,,,,

# Further lines, with some results ahead:
EC50 [1] [µM],solubility [2] [µM],EC50 [3] [µM],logD [4],IC50 [5] [µM],Efficacy [6] [%],Activity [7],SMILES,Ratio IC50/EC50 (Homo sapiens)
0.66,95,0.054,2.7,27,,,CCOc1cc(Cl)c(C(=O)Nc2nc3ccc(S(=O)(=O)CCCN4CCN(C)CC4)cc3s2)cc1N1C[C@@H](C)O[C@@H](C)C1,500
,,1.4,3.3,,,,CCOc1cc(C(F)(F)F)c(C(=O)NC(=O)Nc2nc3ccc(CN4CCN(C)CC4)cc3s2)cc1N1CCOCC1,
,,0.74,3,,47,,CCOc1ccc(C(=O)NC(=O)Nc2nc3ccc(CN4CCN(C)CC4)cc3s2)cc1N1CCOCC1,
> 11,1.5,0.41,2.8,> 50,,,CCOc1cc(Cl)c(C(=O)Nc2nc3ccc(CN4CCN(C)CC4)cc3s2)cc1N1CCOCC1,> 80
> 22,< 0.31,0.49,3.9,5.2,,,CCOc1cc(Cl)c(-c2ncc(-c3nc4ccccc4s3)c(=O)[nH]2)cc1N1CCOCC1,
,,0.299,4,,,,CCOc1cc(Cl)c(C(=O)NC(=O)Nc2nc3ccccc3s2)cc1N1CCOCC1,
1.9,29,0.075,2.6,> 50,,,CCOc1cc(Cl)c(-c2ccc(-c3nc4c(s3)CN(C(=O)COC)CC4)c(=O)[nH]2)cc1N1CCOCC1,
,,0.013,4,,,,CCOc1cc(Cl)c(C(=O)NC(=O)Nc2nc3ccc(CN4CCN(C)CC4)cc3s2)cc1N1CCCC1,
,,0.895,1.7,,,,CCOc1cc(Cl)c(C(=O)NC(=O)Nc2nc3c(s2)CN(C(=O)CO)CC3)cc1N1CCOCC1,
> 6.3,323,0.6,2,> 50,,,CCOc1cc(Cl)c(C(=O)Nc2nc3ccc(S(=O)(=O)CCCN4CCN(C)CC4)cc3s2)cc1N1CCOCC1,> 80
> 9,1,0.74,2.5,> 50,,,CCOc1cc(Cl)c(C(=O)Nc2nc3ccc(S(=O)(=O)C4CCN(C)CC4)cc3s2)cc1N1CCOCC1,> 80
,,0.166,2.2,,,,CCOc1cc(Cl)c(C(=O)NC(=O)Nc2nc3ccc(S(=O)(=O)C4CCN(C)CC4)cc3s2)cc1N1CCOCC1,
,492,> 16,2.5,> 50,,,CCOc1cc(Cl)c(C(=O)N(C)C(=O)Nc2nc3ccc(CN4CCN(C)CC4)cc3s2)cc1N1CCOCC1,
0.61,< 0.7,0.021,> 3.8,1.3,,,CCOc1cc(Cl)c(-c2ccc(-c3nc4ccccc4s3)c(=O)[nH]2)cc1N1CCOCC1,
,20,> 33,,> 50,,,CCOc1cc(Cl)c(NC(=O)Nc2nc3ccc(CN4CCN(C)CC4)cc3s2)cc1N1CCOCC1,
,,0.719,2.3,,,,CCOc1cc(Cl)c(C(=O)NC(=O)Nc2nc3c(s2)CN(C(C)=O)CC3)cc1N1CCOCC1,
1.6,5,0.11,2.9,> 30,,,CCOc1cc(Cl)c(C(=O)Nc2nc3ccc(OC4CCN(C)CC4)cc3s2)cc1N1CCOCC1,> 80
,,7,2.3,,74,,CN1CCC(S(=O)(=O)c2ccc3nc(NC(=O)NC(=O)c4cc(-n5cccn5)ccc4Cl)sc3c2)CC1,
0.037,< 0.5,0.005,3.4,0.46,,,CCOc1cc(Cl)c(-c2ccc(-c3nc4ccc(S(=O)(=O)C5CCN(C)CC5)cc4s3)c(=O)[nH]2)cc1N1CCOCC1,
,,0.022,4,,,,CCOc1cc(Cl)c(C(=O)NC(=O)Nc2nc3ccc(CN4CCN(C)CC4)cc3s2)cc1-n1cccc1,
,,0.26,4.4,,,,CCOc1cc(Cl)c(C(=O)NC(=O)Nc2cc3ccccc3s2)cc1N1CCOCC1,
,,0.12,,,,,CCOc1cc(Cl)c(C(=O)NC(=O)Nc2nc3c(s2)CCCC3)cc1N1CCOCC1,
